# According to ChEMBL document CHEMBL3044647, “Tests for Evaluating the Side Effects of Chlorothalonil (TPN) and Spinosad on the Parasitic Wasp (Aphidius colemani)” (J Pestic Sci, 2005):
# Key:
# [1] = Toxicity against Aphidius colemani in cucumber leaf assessed as mortality at 10 mg/l treated as spraying after 24 hr relative to control; format: organism-based; settings: in vivo, other: spraying
# [2] = Toxicity against Aphidius colemani in cucumber leaf assessed as mortality at 20 mg/l treated as spraying after 48 hr relative to control; format: organism-based; settings: in vivo
# [3] = Toxicity against Aphidius colemani in cucumber leaf assessed as mortality at 20 mg/l treated as spraying after 24 hr relative to control; format: organism-based; settings: in vivo, other: spraying
# [4] = Toxicity against Aphidius colemani in cucumber leaf assessed as mortality at 100 mg/l treated as spraying after 48 hr relative to control; format: organism-based; settings: in vivo
# [5] = Toxicity against Aphidius colemani in cucumber leaf assessed as mortality at 100 mg/l treated as spraying after 24 hr relative to control; format: organism-based; settings: in vivo, other: spraying
# [6] = Toxicity against Aphidius colemani in kidney bean leaf assessed as mortality at 1 mg/l treated as spraying after 48 hr relative to control; format: organism-based; settings: in vivo
# [7] = Toxicity against Aphidius colemani in kidney bean leaf assessed as mortality at 1 mg/l treated as spraying after 24 hr relative to control; format: organism-based; settings: in vivo
# [8] = Toxicity against Aphidius colemani in kidney bean leaf assessed as mortality at 5 mg/l treated as spraying after 48 hr relative to control; format: organism-based; settings: in vivo
# [9] = Toxicity against Aphidius colemani in kidney bean leaf assessed as mortality at 5 mg/l treated as spraying after 24 hr relative to control; format: organism-based; settings: in vivo
# [10] = Toxicity against Aphidius colemani in kidney bean leaf assessed as mortality at 100 mg/l treated as spraying after 48 hr relative to control; format: organism-based; settings: in vivo, other: spraying
# [11] = Toxicity against Aphidius colemani in kidney bean leaf assessed as mortality at 100 mg/l treated as spraying after 24 hr relative to control; format: organism-based; settings: in vivo
# [12] = Toxicity against Aphidius colemani in kidney bean leaf assessed as mortality at 0.8 mg/l treated as spraying after 48 hr relative to control; format: organism-based; settings: in vivo, other: spraying
# [13] = Toxicity against Aphidius colemani in kidney bean leaf assessed as mortality at 0.8 mg/l treated as spraying after 24 hr relative to control; format: organism-based; settings: in vivo
# [14] = Toxicity against Aphidius colemani in kidney bean leaf assessed as mortality at 8.3 mg/l treated as spraying after 24 hr relative to control; format: organism-based; settings: in vivo
# [15] = Toxicity against Aphidius colemani in kidney bean leaf assessed as mortality at 83.3 mg/l treated as spraying after 48 hr relative to control; format: organism-based; settings: in vivo, other: spraying
# [16] = Toxicity against Aphidius colemani in kidney bean leaf assessed as mortality at 83.3 mg/l treated as spraying after 24 hr relative to control; format: organism-based; settings: in vivo, other: spraying
# [17] = Toxicity against Aphidius colemani in strawberry leaf assessed as mortality at 1 mg/l treated as spraying after 48 hr relative to control; format: organism-based; settings: in vivo, other: spraying
# [18] = Toxicity against Aphidius colemani in strawberry leaf assessed as mortality at 1 mg/l treated as spraying after 24 hr relative to control; format: organism-based; settings: in vivo, other: spraying
# [19] = Toxicity against Aphidius colemani in strawberry leaf assessed as mortality at 5 mg/l treated as spraying after 48 hr relative to control; format: organism-based; settings: in vivo
# [20] = Toxicity against Aphidius colemani in strawberry leaf assessed as mortality at 5 mg/l treated as spraying after 24 hr relative to control; format: organism-based; settings: in vivo, other: spraying
# [21] = Toxicity against Aphidius colemani in strawberry leaf assessed as mortality at 100 mg/l treated as spraying after 48 hr relative to control; format: organism-based; settings: in vivo
# [22] = Toxicity against Aphidius colemani in strawberry leaf assessed as mortality at 100 mg/l treated as spraying after 24 hr relative to control; format: organism-based; settings: in vivo
# Leaf [23] = assay: Drug level in Cucumis sativus (cucumber) leaf assessed as deposition in leaf at 5 mg/l; format: ADME
# Leaf [24] = assay: Drug level in Cucumis sativus (cucumber) leaf assessed as deposition in leaf at 10 mg/l; format: ADME
# Leaf [25] = assay: Drug level in Cucumis sativus (cucumber) leaf assessed as deposition in leaf at 20 mg/l; format: ADME
# Leaf [26] = assay: Drug level in Cucumis sativus (cucumber) leaf assessed as deposition in leaf at 100 mg/l; format: ADME
# Leaf [27] = assay: Drug level in Phaseolus vulgaris (kidney bean) leaf assessed as deposition in leaf at 1 mg/l; format: ADME
# Leaf [28] = assay: Drug level in Phaseolus vulgaris (kidney bean) leaf assessed as deposition in leaf at 5 mg/l; format: ADME
# Leaf [29] = assay: Drug level in Phaseolus vulgaris (kidney bean) leaf assessed as deposition in leaf at 100 mg/l; format: ADME
# Leaf [30] = assay: Drug level in Phaseolus vulgaris (kidney bean) leaf assessed as deposition in leaf at 0.8 mg/l; format: ADME
# Leaf [31] = assay: Drug level in Phaseolus vulgaris (kidney bean) leaf assessed as deposition in leaf at 8.3 mg/l; format: ADME
# [32] = Residual toxicity against Aphidius colemani in strawberry leaf assessed as mortality at 50 mg/l leaves collected after 40 days of application measured after 24 hr relative to control; format: organism-based; settings: in vivo
# [33] = Residual toxicity against Aphidius colemani in strawberry leaf assessed as mortality at 50 mg/l leaves collected after 30 days of application measured after 24 hr relative to control; format: organism-based; settings: in vivo
# [34] = Residual toxicity against Aphidius colemani in strawberry leaf assessed as mortality at 50 mg/l leaves collected after 20 days of application measured after 24 hr relative to control; format: organism-based; settings: in vivo
# [35] = Residual toxicity against Aphidius colemani in strawberry leaf assessed as mortality at 50 mg/l leaves collected after 10 days of application measured after 24 hr relative to control; format: organism-based; settings: in vivo
# [36] = Residual toxicity against Aphidius colemani in strawberry leaf assessed as mortality at 50 mg/l leaves collected after 5 days of application measured after 24 hr relative to control; format: organism-based; settings: in vivo
# [37] = Toxicity against Aphidius colemani in cucumber leaf assessed as mortality at 5 mg/l treated as spraying after 48 hr relative to control; format: organism-based; settings: in vivo
# [38] = Toxicity against Aphidius colemani in cucumber leaf assessed as mortality at 5 mg/l treated as spraying after 24 hr relative to control; format: organism-based; settings: in vivo, other: spraying
# [39] = Toxicity against Aphidius colemani in cucumber leaf assessed as mortality at 10 mg/l treated as spraying after 48 hr relative to control; format: organism-based; settings: in vivo, other: spraying
# [40] = Drug level in Fragaria x ananassa (strawberry) leaf at 50 mg/l leaves after 40 days; format: ADME; settings: read-out: Drug uptake
# [41] = Drug level in Fragaria x ananassa (strawberry) leaf at 50 mg/l leaves after 30 days; format: ADME; settings: read-out: Drug uptake
# [42] = Drug level in Fragaria x ananassa (strawberry) leaf at 50 mg/l leaves after 10 days; format: ADME; settings: read-out: Drug uptake
# [43] = Drug level in Fragaria x ananassa (strawberry) leaf at 50 mg/l leaves after 20 days; format: ADME; settings: read-out: Drug uptake
# [44] = Drug level in Fragaria x ananassa (strawberry) leaf at 50 mg/l leaves after 5 days; format: ADME; settings: read-out: Drug uptake
# [45] = Residual toxicity against Aphidius colemani in strawberry leaf assessed as mortality at 50 mg/l leaves collected after 40 days of application measured after 48 hr relative to control; format: organism-based; settings: in vivo
# [46] = Residual toxicity against Aphidius colemani in strawberry leaf assessed as mortality at 50 mg/l leaves collected after 30 days of application measured after 48 hr relative to control; format: organism-based; settings: in vivo
# [47] = Residual toxicity against Aphidius colemani in strawberry leaf assessed as mortality at 50 mg/l leaves collected after 20 days of application measured after 48 hr relative to control; format: organism-based; settings: in vivo
# [48] = Residual toxicity against Aphidius colemani in strawberry leaf assessed as mortality at 50 mg/l leaves collected after 10 days of application measured after 48 hr relative to control; format: organism-based; settings: in vivo
# [49] = Residual toxicity against Aphidius colemani in strawberry leaf assessed as mortality at 50 mg/l leaves collected after 5 days of application measured after 48 hr relative to control; format: organism-based; settings: in vivo
# Leaf [50] = assay: Drug level in Phaseolus vulgaris (kidney bean) leaf assessed as deposition in leaf at 83.3 mg/l; format: ADME
# [51] = Toxicity against Aphidius colemani in kidney bean leaf assessed as mortality at 8.3 mg/l treated as spraying after 48 hr relative to control; format: organism-based; settings: in vivo
# Leaf [52] = assay: Drug level in Fragaria x ananassa (strawberry) leaf assessed as deposition in leaf at 1 mg/l; format: ADME
# Leaf [53] = assay: Drug level in Fragaria x ananassa (strawberry) leaf assessed as deposition in leaf at 5 mg/l; format: ADME
# Leaf [54] = assay: Drug level in Fragaria x ananassa (strawberry) leaf assessed as deposition in leaf at 100 mg/l; format: ADME
# [55] = Toxicity against Aphidius colemani assessed as mortality at 100 mg/l, po after 24 hr relative to control; format: organism-based; settings: in vivo
# [56] = Toxicity against Aphidius colemani assessed as mortality at 100 mg/l, po after 24 hr; format: organism-based; settings: in vivo
# [57] = Contact toxicity against Aphidius colemani assessed as mortality at 100 mg/l after 24 hr relative to control; format: organism-based; settings: in vivo, other: contact
# [58] = Contact toxicity against Aphidius colemani assessed as mortality at 100 mg/l after 24 hr; format: organism-based; settings: in vivo, other: contact
# Aphidius colemani [59] = assay: Drug uptake in Aphidius colemani at 100 mg/l treated as spraying; format: ADME, organism-based; settings: in vivo, topical_or_ocular
# [60] = Toxicity against Aphidius colemani assessed as mortality at 400 mg/l, po after 24 hr relative to control; format: organism-based; settings: in vivo
# [61] = Toxicity against Aphidius colemani assessed as mortality at 400 mg/l, po after 24 hr; format: organism-based; settings: in vivo
# [62] = Contact toxicity against Aphidius colemani assessed as mortality at 400 mg/l after 24 hr relative to control; format: organism-based; settings: in vivo, other: contact
# [63] = Contact toxicity against Aphidius colemani assessed as mortality at 400 mg/l after 24 hr; format: organism-based; settings: in vivo, other: contact
# Aphidius colemani [64] = assay: Drug uptake in Aphidius colemani at 400 mg/l treated as spraying; format: ADME, organism-based; settings: in vivo, topical_or_ocular
# Aphidius colemani [65] = assay: Drug uptake in Aphidius colemani at 400 mg/l treated as dipping; format: ADME, organism-based; settings: in vivo, topical_or_ocular
compound,measurement,setting,value
CC[C@H]1CCC[C@H](O[C@H]2CC[C@H](N(C)C)[C@@H](C)O2)[C@@H](C)C(=O)C2=C[C@@H]3[C@@H](C=C(C)[C@@H]4C[C@@H](O[C@@H]5O[C@@H](C)[C@H](OC)[C@@H](OC)[C@H]5OC)C[C@@H]34)[C@@H]2CC(=O)O1.CC[C@H]1CCC[C@H](O[C@H]2CC[C@H](N(C)C)[C@@H](C)O2)[C@@H](C)C(=O)C2=C[C@@H]3[C@@H](C=C[C@@H]4C[C@@H](O[C@@H]5O[C@@H](C)[C@H](OC)[C@@H](OC)[C@H]5OC)C[C@@H]34)[C@@H]2CC(=O)O1,mortality at 24 h,[1],3.3%
same,mortality at 48 h,[2],86.7%
same,mortality at 24 h,[3],48.3%
same,mortality at 48 h,[4],100%
same,mortality at 24 h,[5],100%
same,mortality at 48 h,[6],21.4%
same,mortality at 24 h,[7],0%
same,mortality at 48 h,[8],0%
same,mortality at 24 h,[9],4%
same,mortality at 48 h,[10],97.8%
same,mortality at 24 h,[11],90%
same,mortality at 48 h,[12],8.9%
same,mortality at 24 h,[13],0%
same,mortality at 24 h,[14],90%
same,mortality at 48 h,[15],100%
same,mortality at 24 h,[16],96.9%
same,mortality at 48 h,[17],0%
same,mortality at 24 h,[18],0%
same,mortality at 48 h,[19],17.2%
same,mortality at 24 h,[20],3.3%
same,mortality at 48 h,[21],100%
same,mortality at 24 h,[22],95.8%
same,Drug uptake,Leaf [23],0.022%
same,Drug uptake,Leaf [24],0.044%
same,Drug uptake,Leaf [25],0.177%
same,Drug uptake,Leaf [26],0.93%
same,Drug uptake,Leaf [27],0.004%
same,Drug uptake,Leaf [28],0.025%
same,Drug uptake,Leaf [29],2.37%
same,Drug uptake,Leaf [30],0.023%
same,Drug uptake,Leaf [31],0.219%
same,mortality at 24 h,[32],4%
same,mortality at 24 h,[33],4.3%
same,mortality at 24 h,[34],27.7%
same,mortality at 24 h,[35],62%
same,mortality at 24 h,[36],74.4%
same,mortality at 48 h,[37],0%
same,mortality at 24 h,[38],3.3%
same,mortality at 48 h,[39],10%
same,concentration at 960 h,[40],9200 ng/g
same,concentration at 720 h,[41],11400 ng/g
same,concentration at 240 h,[42],28800 ng/g
same,concentration at 480 h,[43],23000 ng/g
same,concentration at 120 h,[44],38800 ng/g
same,mortality at 48 h,[45],0%
same,mortality at 48 h,[46],0%
same,mortality at 48 h,[47],55.9%
same,mortality at 48 h,[48],93.6%
same,mortality at 48 h,[49],95.1%
same,Drug uptake,Leaf [50],2.108%
same,mortality at 48 h,[51],98.2%
same,Drug uptake,Leaf [52],0.003%
same,Drug uptake,Leaf [53],0.022%
same,Drug uptake,Leaf [54],1.145%
same,mortality at 24 h,[55],91.3%
same,mortality at 24 h,[56],93.3%
same,mortality at 24 h,[57],100%
same,mortality at 24 h,[58],100%
same,Drug uptake,Aphidius colemani [59],3.63 ng
N#Cc1c(Cl)c(Cl)c(Cl)c(C#N)c1Cl [CHLOROTHALONIL],mortality at 24 h,[60],0%
same,mortality at 24 h,[61],0%
same,mortality at 24 h,[62],8.7%
same,mortality at 24 h,[63],30%
same,Drug uptake,Aphidius colemani [64],25.1 ng
same,Drug uptake,Aphidius colemani [65],5.5 ng
